Measurements taken from EP0966282B1, “USE OF THE ANGIOTENSIN II ANTAGONISTS LOSARTAN AND EXP-3174 TO TREAT SYMPTOMATIC HEART FAILURE” (priority 1997, dated 1998).
Where two headings read alike, the source gives them in different places. Marks after values point to notes of the source that are not given here.

Legend:
[1] = test system: older patients with symptomatic heart failure; details: for hospitalized overall for any reason: 48-week study observation period, p=0.018
Source text: The study was approved by institutional review boards at each site; all patients gave written informed consent. An independent Data and Safety Monitoring Committee monitored the progress of the study. See Pitt B, Chang P, Timmermans P. Angiotensin II receptor antagonists in heart failure: Rationale and design of the Evaluation of Losartan in the Elderly (ELITE) Trial. Cardiovascular Drugs and Therapy 1995; 9: 693-700.
A detailed description of enrollment and exclusion criteria and study design has been presented previously. See Pitt B, Chang P, Timmermans P. Angiotensin II receptor antagonists in heart failure: Rationale and design of the Evaluation of Losartan in the Elderly (ELITE) Trial. Cardiovascular Drugs and Therapy 1995; 9: 693-700.
Titration generally occurred at 7-day intervals as tolerated. Treatment with all other concomitant cardiovascular therapies was permitted with the exception of open-label ACE inhibitors. Randomized patients were stratified by age (less than 70 and 70 years or greater).
Clinical assessments were performed weekly during titration and at three-month intervals thereafter. Laboratory evaluations were performed at weeks three, six, and twelve, and at three month intervals thereafter.
See Example 2) Hypotension-related symptoms, clinically important serum potassium increases (≥ 0.5 mEq/L), and cough, all originally secondary endpoints, were moved to tertiary endpoints. All deaths (including cause of death) and hospitalizations were adjudicated by an independent Clinical Endpoint Adjudication Committee, blinded to study treatment (see panel for mortality classification). Other prospectively-defined measures included myocardial infarction/hospitalization for unstable angina, worsening of heart failure, New York Heart Association functional classification, discontinuation from the study due to study drug intolerance, changes in neurohormonal profile.
• Sudden Cardiac Death: Death occurring without warning or within 1 hour of symptoms • Death due to Progressive Heart Failure: Death preceded by worsening signs and/or symptoms of heart failure, including cardiogenic shock • Fatal Myocardial Infarction: Death associated with autopsy-verified myocardial infarction or death within 28 days of a hospital-verified acute myocardial infarction provided no other cardiac or non-cardiac cause of death is found • Death due to Other Cardiac Causes: Death due to other cardiac causes, such as arrhythmia • Death due to Other Vascular Causes: Death due to vascular events such as stroke, pulmonary embolus, ruptured aneurysm, etc. • Death due to non-cardiovascular causes: Death not due to any cardiac or vascular events
The power and sample-size estimates for this study have been described. See Pitt B, Chang P, Timmermans P. Angiotensin II receptor antagonists in heart failure: Rationale and design of the Evaluation of Losartan in the Elderly (ELITE) Trial. Cardiovascular Drugs and Therapy 1995; 9: 693-700. Analysis of renal dysfunction (increases in serum creatinine) was based upon a modified intent-to-treat population; i.e., all patients were analyzed according to their randomization group, and an endpoint was declared only if initial and confirmatory elevations occurred while on double-blind therapy. Patients who discontinued from the study without meeting this endpoint were censored in the time-to-event analysis at the time of study discontinuation.
Analyses of deaths and heart failure hospitalizations (adjudicated endpoints) were based on an intent-to-treat population; all patients discontinued prematurely were followed through the specified 48-week period of the study. Patients not meeting the endpoint were censored in the time-to-event analysis either at the time of study completion (for patients who completed) or at the end of the 48-week follow-up period (for patients who discontinued).
For all time-to-event data, survival analyses were based upon the log-rank test.

[2] = test system: patients with symptomatic heart failure; assay: Meta-analysis of clinical events, Protocols A & B (Peto-modified Mantel-Haenszel method); format: in vivo; details: for CHF Hospitalization, Odds Ratio / Death, Odds Ratio: Meta-analysis Protocols A & B, odds in placebo group relative to losartan group
Protocol: This report summarizes the results of the Meta-analysis performed (as proposed in the Data Analysis Plan) on the observed mortality and congestive heart failure (CHF) hospitalization across these two studies. The mortality and CHF hospitalization were not predefined endpoints in the protocols but it was intended that they be analyzed as a part of safety. Thus results from these analyses should not be interpreted as a test of significance as there were no predefined hypotheses corresponding to these safety parameters. […] Odds ratio's with 95% confidence intervals have been provided for these variables. Peto-modified Mantel-Haenszel (Fleiss, J.L., Statistical Methods for Rates and Proportions, Wiley, NY, 1981.) method was used to carry out the Meta-analysis of death and CHF hospitalization rates in the two 12 week exercise studies. This method assumes homogeneity across the studies and provides a test for heterogeneity. […] Since the results from protocols A and B are consistent, a safety Meta-analysis as proposed in the Data Analysis Plan has been performed. Homogeneity between the two studies with respect to odds ratio's for death and CHF hospitalization was found.

[3] = losartan compared to captopril, controlled for age category
[4] = losartan compared to captopril, negative = increase in risk

CCCCc1nc(Cl)c(CO)n1Cc1ccc(-c2ccccc2-c2nn[nH]n2)cc1 [Losartan]
hospitalized overall for any reason ([1]; number of patients): 86 patients | hospitalized overall for any reason [1]: 24.4% | incidence of heart failure hospitalizations ([1]; 48 weeks): 5.7% | Single rises of serum creatinine ≥0.3 mg/dL, risk reduction ([1]; human, in vivo): 14% | incidence of death due to progressive heart failure ([1]; human, in vivo): less than one | patients discontinued for renal function reason ([1]; human, in vivo): less than 2% | persistent increases in serum creatinine ≥0.3 mg/dL from baseline ([1]; human, in vivo): 10.5% | tolerability ([1]; human, in vivo): better tolerated compared to captopril | Cause of death: Cardiovascular, Fatal Myocardial Infarction ([1]; intent-to-treat, 48 weeks): 1 (0.3) number (percent) of patients | Cause of death: Cardiovascular, Other Vascular ([1]; intent-to-treat, 48 weeks): 5 (1.4) number (percent) of patients | Cause of death: Cardiovascular, Progressive Heart Failure ([1]; intent-to-treat, 48 weeks): 1 (0.3) number (percent) of patients | Cause of death: Cardiovascular, Sudden Death ([1]; intent-to-treat, 48 weeks): 5 (1.4) number (percent) of patients | Cause of death: Non-cardiovascular ([1]; intent-to-treat, 48 weeks): 5 (1.4) number (percent) of patients | Death and/or Hospitalization for Heart Failure ([1]; intent-to-treat, 48 weeks): 33 (9.4) number (percent) of patients | Hospitalization for Heart Failure ([1]; intent-to-treat, 48 weeks): 20 (5.7) number (percent) of patients | total mortality ([1]; intent-to-treat, 48 weeks): 17 (4.8) number (percent) of patients | Death and/or Hospitalization for Heart Failure, RISK REDUCTION (95% CI) [1, 3]: 0.32 (- 0.04, 0.55) | Fatal Myocardial Infarction, RISK REDUCTION (95% CI) [1, 3]: 0.76 (- 0.83, 0.97) | Hospitalization for Heart Failure, RISK REDUCTION (95% CI) [1, 3]: 0.04 (- 0.74, 0.47) | Non-cardiovascular death, RISK REDUCTION (95% CI) [1, 3]: 0.35 (- 0.94, 0.78) | Sudden Death, RISK REDUCTION (95% CI) [1, 3]: 0.64 ( 0.03, 0.86) | Total Mortality, RISK REDUCTION (95% CI) [1, 3]: 0.46 ( 0.05, 0.69) | Death from Other Vascular causes, RISK REDUCTION (95% CI) [1, 4]: -0.03 (- 2.63, 0.71) | Death from Progressive Heart Failure, RISK REDUCTION (95% CI) [1, 4]: -0.11 (-20.23, 0.94) | decrease in total mortality (lower risk of death) ([1]; losartan versus captopril, 48 weeks, P=0.035): 46% | Fatal myocardial infarction ([1]; number of patients): one | died of progressive heart failure ([1]; number of patients in each treatment group): one | total mortality ([1]; number of patients, p=0.035): 17 patients | sudden cardiac death ([1]; number of patients, p=0.043): five | death and/or heart failure hospitalizations ([1]; of 352 losartan-treated, of 370 captopril-treated patients): 33 patients | death and/or heart failure hospitalizations ([1]; percent of patients, p=0.075): 9.4% | female patients died ([1]; subpopulation of female patients: of 118 losartan-treated, of 122 captopril-treated): 9 patients | patients classified as New York Heart Association Class I or II at the end of the study ([1]; week 48, versus 66 percent (losartan) and 64 percent (captopril) at baseline): 80% | CHF Hospitalization, Odds Ratio [2]: 2.4* | Death, Odds Ratio [2]: 3.5* | CHF Hospitalization, Odds Ratio ([2]; listed as losartan): 2.4 | Death, Odds Ratio ([2]; listed as losartan): 3.5 | CHF Hospitalization (during double-blind) ([2]; Protocols A & B combined): 3.1% ^a | Death ([2]; Protocols A & B combined, during double-blind therapy or related to Serious AE): 1.4%
